The target of assay [1] is Dual specificity protein kinase CLK1 (Homo sapiens, UniProt P49759). The experiment in a line: inhibition of human CLK1 activity – biochemical, cherry-picked samples, selectivity assay for Dyrk1A inhibitor project, dose response (AID 588811).
The target in assay [2] is Beta-2 adrenergic receptor (Homo sapiens, UniProt P07550). As to the kind of experiment: ADRB2 activation measured by internalization – cell-based, FAP fluorogen, flow cytometry, cherry pick 1, dose response (AID 588763). Format: functional. (In flow cytometry, cells or beads pass a laser one at a time.)
Beta-2 adrenergic receptor, sequence (P07550 whole entry): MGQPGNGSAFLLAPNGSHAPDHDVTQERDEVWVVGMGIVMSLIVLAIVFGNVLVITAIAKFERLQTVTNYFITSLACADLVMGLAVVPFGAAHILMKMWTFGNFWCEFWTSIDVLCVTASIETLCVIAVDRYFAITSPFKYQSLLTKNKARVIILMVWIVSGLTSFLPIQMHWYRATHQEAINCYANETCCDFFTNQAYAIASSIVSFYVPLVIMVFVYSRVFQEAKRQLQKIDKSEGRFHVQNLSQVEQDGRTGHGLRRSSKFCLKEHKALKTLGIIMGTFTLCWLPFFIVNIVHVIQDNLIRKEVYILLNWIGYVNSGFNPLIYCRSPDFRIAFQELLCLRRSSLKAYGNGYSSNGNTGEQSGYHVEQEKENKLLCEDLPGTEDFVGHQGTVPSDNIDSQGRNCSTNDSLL
Assay [3] deals with DNA topoisomerase (Yersinia pestis, UniProt A0A2S9PM60). The experiment in a line: Yersinia topoisomerase I cleavage product accumulation – biochemical, cherry-pick, dose response (AID 588525).
DNA topoisomerase, sequence (A0A2S9PM60 whole entry): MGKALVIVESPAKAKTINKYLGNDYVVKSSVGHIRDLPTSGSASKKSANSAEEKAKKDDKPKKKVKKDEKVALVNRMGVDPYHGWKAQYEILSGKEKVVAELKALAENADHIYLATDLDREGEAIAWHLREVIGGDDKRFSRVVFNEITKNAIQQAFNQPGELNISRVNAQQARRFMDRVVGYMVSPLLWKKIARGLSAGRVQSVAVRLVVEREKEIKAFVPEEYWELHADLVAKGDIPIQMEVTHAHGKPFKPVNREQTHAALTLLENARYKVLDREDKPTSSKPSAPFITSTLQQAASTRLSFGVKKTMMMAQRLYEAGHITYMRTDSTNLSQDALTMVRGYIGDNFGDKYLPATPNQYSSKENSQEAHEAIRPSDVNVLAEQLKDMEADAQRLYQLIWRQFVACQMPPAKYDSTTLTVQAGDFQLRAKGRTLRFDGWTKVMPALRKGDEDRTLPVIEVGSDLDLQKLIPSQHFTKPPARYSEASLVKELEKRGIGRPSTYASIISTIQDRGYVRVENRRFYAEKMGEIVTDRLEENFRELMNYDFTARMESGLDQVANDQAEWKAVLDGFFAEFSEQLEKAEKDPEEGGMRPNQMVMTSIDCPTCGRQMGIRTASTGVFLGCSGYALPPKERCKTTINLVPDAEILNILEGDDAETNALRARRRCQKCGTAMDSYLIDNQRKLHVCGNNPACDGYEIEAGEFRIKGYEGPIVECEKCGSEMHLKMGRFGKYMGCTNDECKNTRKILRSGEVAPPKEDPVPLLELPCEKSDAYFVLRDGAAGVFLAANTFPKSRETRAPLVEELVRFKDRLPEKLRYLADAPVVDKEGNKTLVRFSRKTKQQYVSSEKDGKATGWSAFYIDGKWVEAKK
The test system of assay [4] is INS1. As to the kind of experiment: INS-1E mitochondrial potential rescue under cytokines – cell-based, JC-1 fluorescence ratio, dry powder, dose response (AID 488931). The conditions noted are these: Rattus norvegicus. The class given is functional.
For assay [5], the target named is Sphingosine 1-phosphate receptor 2 (Homo sapiens, UniProt O95136). The experiment in a line: Late-stage fluorescence-based dose-response cell-based counterscreen assay to identify agonists of the Sphingosine 1-Phosphate Receptor 3 (S1P3): Sphingosine 1-Phosphate Receptor 2 (S1P2) agonist assay. Format: functional. In general terms: The purpose of a counterscreen is to sort out artefacts and off-target activity.
Sphingosine 1-phosphate receptor 2, sequence (O95136 whole entry): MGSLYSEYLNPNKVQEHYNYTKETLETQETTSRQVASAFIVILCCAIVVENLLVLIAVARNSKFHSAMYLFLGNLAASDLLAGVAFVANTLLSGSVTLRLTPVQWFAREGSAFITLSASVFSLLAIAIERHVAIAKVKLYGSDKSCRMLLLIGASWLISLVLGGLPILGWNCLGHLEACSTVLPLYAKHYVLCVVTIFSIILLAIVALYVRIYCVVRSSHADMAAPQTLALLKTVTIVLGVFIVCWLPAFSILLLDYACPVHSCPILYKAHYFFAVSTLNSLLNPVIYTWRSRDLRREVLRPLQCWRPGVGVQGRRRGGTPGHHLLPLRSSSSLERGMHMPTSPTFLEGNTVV

Assay [6] deals with Sphingosine 1-phosphate receptor 4 (Homo sapiens, UniProt O95977). As to the kind of experiment: Late-stage fluorescence-based dose-response cell-based counterscreen assay to identify agonists of the Sphingosine 1-Phosphate Receptor 3 (S1P3): Sphingosine 1-Phosphate Receptor 4 (S1P4) agonist assay. The class given is functional.
Sphingosine 1-phosphate receptor 4, sequence (O95977 whole entry): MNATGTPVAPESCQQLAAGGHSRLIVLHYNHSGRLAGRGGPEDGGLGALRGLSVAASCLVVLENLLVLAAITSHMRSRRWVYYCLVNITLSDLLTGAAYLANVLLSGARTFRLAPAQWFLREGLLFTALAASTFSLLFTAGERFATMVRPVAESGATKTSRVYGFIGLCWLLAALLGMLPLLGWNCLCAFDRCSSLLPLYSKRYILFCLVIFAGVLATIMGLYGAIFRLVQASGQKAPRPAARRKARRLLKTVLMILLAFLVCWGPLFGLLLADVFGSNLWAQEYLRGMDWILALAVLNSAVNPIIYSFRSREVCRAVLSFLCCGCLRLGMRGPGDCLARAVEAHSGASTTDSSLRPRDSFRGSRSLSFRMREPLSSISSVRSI
Assay [7] in a line: A Cell Based Secondary Assay To Explore Cytotoxicity of Compounds that Sensitize Mycobacterium Tuberculosis to Beta-Lactam Antibiotics. Format: functional.
For assay [8], the system named is CHO. As to the kind of experiment: CHO cell viability loss, potency – luminescence, cytotoxicity control for TLR9-MyD88 binding inhibitor project, dose response (AID 588339).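 Further: CHO cells stably coexpressing TLR9 and MyD88 fusions from primary screen; compound exposure lasted 48 hours before viability readout.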 Format: functional, cell-based, hamster. The conditions noted are these: Cricetulus griseus.
The target of assay [9] is Beta Lactamase (Pseudomonas aeruginosa, UniProt Q932Y6). The experiment in a line: BLA reporter interference, concentration series – BLA reporter cells, FRET fluorescence, artefact control for TLR9-MyD88 binding inhibitor project, dose response (AID 588341).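 Further: cell based assay in CHO-K1 cells stably expressing beta-lactamase.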 Format: cell-based.
Beta Lactamase, sequence (Q932Y6 whole entry): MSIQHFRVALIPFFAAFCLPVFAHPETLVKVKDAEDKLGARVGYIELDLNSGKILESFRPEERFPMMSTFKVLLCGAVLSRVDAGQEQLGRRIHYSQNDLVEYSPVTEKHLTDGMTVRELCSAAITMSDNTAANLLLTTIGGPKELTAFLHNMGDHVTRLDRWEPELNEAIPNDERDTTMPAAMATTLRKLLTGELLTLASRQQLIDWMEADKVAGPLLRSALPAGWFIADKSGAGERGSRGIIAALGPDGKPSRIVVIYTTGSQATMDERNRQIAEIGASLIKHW
Assay [10] has as its target T1, Endoribonuclease toxin MazF (Escherichia coli K-12, UniProt P0AE70).
T1 sequence (P0AE70 whole entry): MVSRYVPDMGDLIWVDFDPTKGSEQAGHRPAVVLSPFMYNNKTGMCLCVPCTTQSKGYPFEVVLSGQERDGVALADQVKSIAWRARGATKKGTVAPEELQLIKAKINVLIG
The experiment in a line: substrate-only fluorescence increase artefacts – biochemical, single-stranded RNase substrate, counter-screen for MazEF activator project, dose response (AID 588502). The class given is functional.

For assay [11], the target named is T1, Endoribonuclease toxin MazF. The experiment in a line: activation of MazEF endoribonuclease cleavage – biochemical, fluorescence, single-stranded RNA substrate, uHTS hits, dose response (AID 588481). The class given is functional.

Molecules are shown by their SMILES. The source made the active and inactive calls.

What is called AC50 is the midpoint of the concentration-response curve, whichever way the signal moves. Broadly, the EC50 is the concentration giving half of the maximal effect. For orientation: CC50 means the concentration giving 50% cytotoxicity. As usually defined, the IC50 is the concentration that inhibits the measured activity by half.

Dual specificity protein kinase CLK1, sequence (P49759 whole entry): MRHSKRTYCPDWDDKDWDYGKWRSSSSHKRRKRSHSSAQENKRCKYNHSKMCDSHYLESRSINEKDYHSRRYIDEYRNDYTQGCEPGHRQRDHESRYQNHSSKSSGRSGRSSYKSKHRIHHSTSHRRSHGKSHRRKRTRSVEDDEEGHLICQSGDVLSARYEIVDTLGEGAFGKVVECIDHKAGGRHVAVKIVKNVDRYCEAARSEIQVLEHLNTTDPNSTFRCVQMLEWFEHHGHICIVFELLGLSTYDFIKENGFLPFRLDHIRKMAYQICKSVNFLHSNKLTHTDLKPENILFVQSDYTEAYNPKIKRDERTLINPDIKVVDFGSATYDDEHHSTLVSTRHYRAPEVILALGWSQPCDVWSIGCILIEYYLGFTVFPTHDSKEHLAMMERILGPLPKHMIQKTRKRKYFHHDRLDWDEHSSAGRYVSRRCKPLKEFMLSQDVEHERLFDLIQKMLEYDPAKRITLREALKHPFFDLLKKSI

As to `c1cncc(CNc2ccnc(-c3ccc4cn[nH]c4c3)n2)c1`, the AC50 in [1] was 2.01 µM (active). On to `O=C(CCCCCn1c(=O)[nH]c2ccsc2c1=O)NCc1ccc(F)cc1`, for which the EC50 in [2] was 0.0776 µM (active).

As to `CC(C)CN(C(=O)COC(=O)c1cc2ccccc2cc1O)c1c(N)n(Cc2ccccc2)c(=O)[nH]c1=O`, the AC50 in assay [3] was 6.2 µM (active).

Consider `COc1ccc(S(=O)(=O)Nc2cccc3c2O[C@@H](CN(C)S(=O)(=O)c2ccc(OC)cc2)[C@H](C)CN([C@@H](C)CO)C3=O)cc1`, for which the concentration at half-maximal activity (AC50) in assay [4] is 73.4 µM (active). Turning to `O=C(c1cc(C2CC2)on1)N(CC1CCCCC1)C1CCCCC1`, the EC50 in assay [5] and in assay [6] was > 50 µM (inactive) each time. Regarding `Nc1c(C(=O)c2cccs2)sc2nsc(SCCN3CCCCC3)c12`, in assay [7], the half-maximal cytotoxic concentration (CC50) was > 40 µM (active). The IC50 in assay [8] is > 49.8 µM (inactive); in assay [9], 9.89 µM (active). In addition, the EC50 in assay [10] was > 99 µM (inactive); in assay [11] it was 12 µM (active).

Values taken from ChEMBL document CHEMBL1201862, “PubChem BioAssay data set” (2004).
